pIC50: −log10 of the molar value.
System: KRAS-mutant PDC multicell tumor spheroid viability
Assay: Anticancer human tumor 521955-158-R2-J5-PDC patient-derived pancreatic carcinoma cell line growth inhibition [KRAS2]
Conditions: for pIC50: curve of first compound; for viability, T/C: stronger effect = lower value
Outline: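 KRAS-mutant tumor cells were grown as spheroids with HUVEC endothelial cells and human MSCs as stroma. Targeted agents were tested alone and with KRAS pathway inhibitors. Doses started at or near clinical Cmax, or 10 microM, descending half-log.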

[1] = second compound 0.1 µM, first compound 0.000316 µM
[2] = second compound 0.1 µM, first compound 0.001 µM
[3] = second compound 0.1 µM, first compound 0.00316 µM
[4] = second compound 0.1 µM, first compound 0.01 µM
[5] = second compound 0.1 µM, first compound 0.0316 µM
[6] = second compound 0.1 µM, first compound 0.1 µM
[7] = second compound 0.316 µM, first compound 0.000316 µM
[8] = second compound 0.316 µM, first compound 0.001 µM
[9] = second compound 0.316 µM, first compound 0.00316 µM
[10] = second compound 0.316 µM, first compound 0.01 µM
[11] = second compound 0.316 µM, first compound 0.0316 µM
[12] = second compound 0.316 µM, first compound 0.1 µM
[13] = second compound 1 µM, first compound 0.000316 µM
[14] = second compound 1 µM, first compound 0.001 µM
[15] = second compound 1 µM, first compound 0.00316 µM
[16] = second compound 1 µM, first compound 0.01 µM
[17] = second compound 1 µM, first compound 0.0316 µM
[18] = second compound 1 µM, first compound 0.1 µM
[19] = second compound 3.16 µM, first compound 0.000316 µM
[20] = second compound 3.16 µM, first compound 0.001 µM
[21] = second compound 3.16 µM, first compound 0.00316 µM
[22] = second compound 3.16 µM, first compound 0.01 µM
[23] = second compound 3.16 µM, first compound 0.0316 µM
[24] = second compound 3.16 µM, first compound 0.1 µM
[25] = second compound 10 µM, first compound 0.000316 µM
[26] = second compound 10 µM, first compound 0.001 µM
[27] = second compound 10 µM, first compound 0.00316 µM
[28] = second compound 10 µM, first compound 0.01 µM
[29] = second compound 10 µM, first compound 0.0316 µM
[30] = second compound 10 µM, first compound 0.1 µM
[31] = second compound 0.1 µM, first compound 0.316 µM
[32] = second compound 0.1 µM, first compound 1 µM
[33] = second compound 0.1 µM, first compound 3.16 µM
[34] = second compound 0.1 µM, first compound 10 µM
[35] = second compound 0.316 µM, first compound 0.316 µM
[36] = second compound 0.316 µM, first compound 1 µM
[37] = second compound 0.316 µM, first compound 3.16 µM
[38] = second compound 0.316 µM, first compound 10 µM
[39] = second compound 1 µM, first compound 0.316 µM
[40] = second compound 1 µM, first compound 1 µM
[41] = second compound 1 µM, first compound 3.16 µM
[42] = second compound 1 µM, first compound 10 µM
[43] = second compound 3.16 µM, first compound 0.316 µM
[44] = second compound 3.16 µM, first compound 1 µM
[45] = second compound 3.16 µM, first compound 3.16 µM
[46] = second compound 3.16 µM, first compound 10 µM
[47] = second compound 10 µM, first compound 0.316 µM
[48] = second compound 10 µM, first compound 1 µM
[49] = second compound 10 µM, first compound 3.16 µM
[50] = second compound 10 µM, first compound 10 µM
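Also: viability read after seven days of drug exposure.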

Structure (SMILES)	pIC50 (second compound 0.1 µM)	pIC50 (second compound 0.316 µM)	pIC50 (second compound 1 µM)	pIC50 (second compound 3.16 µM)	pIC50 (second compound 10 µM)	viability, T/C [1]	viability, T/C [2]	viability, T/C [3]	viability, T/C [4]	viability, T/C [5]	viability, T/C [6]	viability, T/C [7]	viability, T/C [11]	viability, T/C [12]	viability, T/C [17]	viability, T/C [18]	viability, T/C [23]	viability, T/C [24]	viability, T/C [29]	viability, T/C [30]	other results
CC(C)n1nc(-c2ccc3oc(N)nc3c2)c2c(N)ncnc21 + CNCc1ccccc1-c1csc(C(C)Nc2nc(C)nc3cc(OC)c(OC)cc23)c1	8.13	8.04	8.18	> 9.50	> 9.50	91.2%	85.3%	61.2%	45.8%	34.1%	25.2%	84%	30.7%	23.8%	30.9%	21.6%	1.25%	0.88%	0.15%	0.2%	viability, T/C [8]: 83.2%; viability, T/C [9]: 67.1%; viability, T/C [10]: 49.4%; viability, T/C [13]: 92.5%; viability, T/C [14]: 82.7%; viability, T/C [15]: 62.2%; viability, T/C [16]: 42.1%; viability, T/C [19]: 32.1%; viability, T/C [20]: 43.5%; viability, T/C [21]: 0.4%; viability, T/C [22]: 0.49%; viability, T/C [25]: 0.38%; viability, T/C [26]: 0.15%; viability, T/C [27]: 0.47%; viability, T/C [28]: 0.13%
CC1(C)CCC(CN2CCN(c3ccc(C(=O)NS(=O)(=O)c4ccc(NCC5CCOCC5)c([N+](=O)[O-])c4)c(Oc4cnc5[nH]ccc5c4)c3)CC2)=C(c2ccc(Cl)cc2)C1 + CNCc1ccccc1-c1csc(C(C)Nc2nc(C)nc3cc(OC)c(OC)cc23)c1	5.21	5.28	5.38	> 7.50	> 7.50	–	–	–	–	98.8%	98.8%	–	90.2%	94.1%	91.1%	104%	0.76%	3.72%	0.3%	0.27%	viability, T/C [31]: 97.2%; viability, T/C [32]: 102%; viability, T/C [33]: 104%; viability, T/C [34]: 13.4%; viability, T/C [35]: 93.4%; viability, T/C [36]: 89.2%; viability, T/C [37]: 80.8%; viability, T/C [38]: 9.94%; viability, T/C [39]: 103%; viability, T/C [40]: 84.5%; viability, T/C [41]: 64.2%; viability, T/C [42]: 5.98%; viability, T/C [43]: 43.5%; viability, T/C [44]: 1.04%; viability, T/C [45]: 1.54%; viability, T/C [46]: 0.73%; viability, T/C [47]: 0.23%; viability, T/C [48]: 0.22%; viability, T/C [49]: 0.67%; viability, T/C [50]: 0.32%
COc1cc2nccc(Oc3ccc(NC(=O)C4(C(=O)Nc5ccc(F)cc5)CC4)cc3)c2cc1OC + CNCc1ccccc1-c1csc(C(C)Nc2nc(C)nc3cc(OC)c(OC)cc23)c1	5.17	5.21	5.43	> 7.50	> 7.50	–	–	–	–	92.7%	94.2%	–	94.6%	101%	98.8%	99.9%	0.62%	0.34%	0.2%	0.12%	viability, T/C [31]: 94.5%; viability, T/C [32]: 92.2%; viability, T/C [33]: 70.7%; viability, T/C [34]: 39.4%; viability, T/C [35]: 95.9%; viability, T/C [36]: 115%; viability, T/C [37]: 75.7%; viability, T/C [38]: 31.9%; viability, T/C [39]: 114%; viability, T/C [40]: 99.6%; viability, T/C [41]: 57.7%; viability, T/C [42]: 2.02%; viability, T/C [43]: 0.41%; viability, T/C [44]: 0.52%; viability, T/C [45]: 0.39%; viability, T/C [46]: 0.4%; viability, T/C [47]: 0.63%; viability, T/C [48]: 0.12%; viability, T/C [49]: 0.23%; viability, T/C [50]: 0.19%
Cn1ncnc1[C@H]1c2n[nH]c(=O)c3cc(F)cc(c23)N[C@@H]1c1ccc(F)cc1 + CNCc1ccccc1-c1csc(C(C)Nc2nc(C)nc3cc(OC)c(OC)cc23)c1	< 7.00	< 7.00	< 7.00	> 9.50	> 9.50	101%	94.8%	84.5%	80.2%	81.7%	81%	104%	81.8%	80.3%	91.5%	89.6%	0.7%	0.26%	0.16%	1.36%	viability, T/C [8]: 81.2%; viability, T/C [9]: 82.1%; viability, T/C [10]: 76.7%; viability, T/C [13]: 114%; viability, T/C [14]: 119%; viability, T/C [15]: 112%; viability, T/C [16]: 93.8%; viability, T/C [19]: 2.53%; viability, T/C [20]: 1.22%; viability, T/C [21]: 2.97%; viability, T/C [22]: 1.01%; viability, T/C [25]: 0.78%; viability, T/C [26]: 0.71%; viability, T/C [27]: 0.43%; viability, T/C [28]: 0.21%
